PMC8802628, “Selective activation of PFKL suppresses the phagocytic oxidative burst” (Cell, 2021)
Substitutions are numbered along the chain they refer to.

Assays:
[1] = molecular target: T1, PFKL (Homo sapiens, UniProt P17858); experiment: Recombinant PFKL activity assay (relief of ATP inhibition); assay type: biochemical; details: at 3.1 mM ATP; F6P approximately twice the Km,F6P
T1 construct: made in house; host or cells: Sf9 insect cells (baculovirus, Bac-to-Bac)
T1 sequence (P17858 1-780): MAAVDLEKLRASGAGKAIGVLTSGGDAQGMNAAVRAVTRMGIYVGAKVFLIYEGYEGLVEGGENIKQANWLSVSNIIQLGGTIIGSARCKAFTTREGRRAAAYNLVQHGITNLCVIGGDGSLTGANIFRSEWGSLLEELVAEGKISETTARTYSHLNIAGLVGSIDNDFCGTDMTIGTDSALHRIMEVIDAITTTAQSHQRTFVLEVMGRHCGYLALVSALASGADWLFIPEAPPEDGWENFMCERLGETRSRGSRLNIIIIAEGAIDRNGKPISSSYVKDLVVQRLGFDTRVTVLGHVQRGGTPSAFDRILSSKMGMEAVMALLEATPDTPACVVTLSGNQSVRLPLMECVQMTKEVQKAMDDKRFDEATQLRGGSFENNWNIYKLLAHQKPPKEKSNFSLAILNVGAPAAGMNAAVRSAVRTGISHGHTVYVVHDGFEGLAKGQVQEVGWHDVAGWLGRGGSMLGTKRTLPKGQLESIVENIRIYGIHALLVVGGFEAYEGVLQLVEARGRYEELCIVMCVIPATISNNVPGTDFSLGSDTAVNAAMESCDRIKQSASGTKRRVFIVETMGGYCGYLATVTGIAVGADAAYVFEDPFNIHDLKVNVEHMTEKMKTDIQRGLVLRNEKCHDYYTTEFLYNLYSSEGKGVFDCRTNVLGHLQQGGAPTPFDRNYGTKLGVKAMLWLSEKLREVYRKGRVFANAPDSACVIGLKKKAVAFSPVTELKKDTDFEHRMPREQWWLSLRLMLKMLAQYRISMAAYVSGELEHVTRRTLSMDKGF
Source text: (§1) Recombinant N-terminal His-tagged human PFKL (NP_002617), PFKM (NP_000280), and PFKP (NM_002627.4) were generated as described ([Webb et al., 2015], [2017]). Point mutants of PFK1 were generated using the QuikChange Lightning kit (Aligent).
(§2) His-tagged PFK1 was expressed and purified as described with slight modifications ([Webb et al., 2015], [2017]). Briefly, baculovirus was generated using the Bac-to-Bac Expression system (Invitrogen). PFK1 was expressed in 2-5 × 10^6 sf9 cells at a multiplicity of infection of two for 48 h. Cells were lysed in 20 mM HEPES, pH 7.5, 80 mM potassium phosphate, 1 mM 2-mercapentoethanol, 10% glycerol, 10 mM imidazole, and EDTA-free Protease Inhibitor Cocktail (Abcam) with a Dounce homogenizer. The soluble lysate was incubated with HisPur cobalt resin (ThermoFisher Scientific). The resin was washed with 5 bead volumes lysis buffer, 10 bead volumes lysis buffer containing 2 M NaCl, and 5 further bead volumes lysis buffer. PFK1 was eluted in lysis buffer containing 100 mM imidazole. Fractions containing protein were pooled, passed over a desalting column equilibrated in freezing buffer [20 mM HEPES pH 7.5, 1 mM DTT, 500 μM ammonium sulfate, 5% glycerol, 1 mM ATP, and 100 μM EDTA] and concentrated using an Amicon Ultracel-30K Centrifugal Filter Unit (MilliporeSigma). Protein was quantified using a Bradford Protein Assay kit (ThermoFisher Scientific), and aliquotes frozen in liquid nitrogen for storage at −80°C.
(§3) PFK1 activity was determined using the rate of FBP production via an auxiliary enzyme assay adapted to a 96-well format ([Brüser et al., 2012]; [Webb et al., 2015]). The auxiliary enzymes aldolase, triosephosphate isomerase, and glycerol phosphate dehydrogenase were purchased from MilliporeSigma as ammonium sulfate slurries and desalted using an Amicon Ultracel-10K Centrifugal Filter Unit. For assays containing FBP, the rate of ADP production was determined using the auxiliary enzymes pyruvate kinase (PK) and lactate dehydrogenase (LDH) (MilliporeSigma) in a buffer containing 250 μM phosphoenolpyruvic acid, […] NADH, 50 mM HEPES pH 7.5, 100 mM KCl, 1 mM DTT, and effector concentrations as described in the text. The temperature was equilibrated to 25°C for 5 min before initiating the reaction 10 mM MgCl2. Absorbance at 340 nm was measured using a Varioskan LUX Multimode microplate reader (ThermoFisher). Kinetic parameters were generated by nonlinear regression analysis using Prism (GraphPad Software) and are the mean of a minimum of three measurements from two independent preparations of protein. One unit of activity was defined as the amount of enzyme that catalyzed the formation of 1 μmol of fructose 1,6-bisphosphate per min at 25°C. Assays for PFKM were performed at pH 7.0 due to the pH-dependence of ATP inhibition ([Trivedi and Danforth, 1966]).

[2] = molecular target: T2, PFKL (K315R, V545L, and V582M), PFKL3Mut (Homo sapiens, UniProt P17858, K315R/V545L/V582M); experiment: Recombinant PFKL3Mut activity assay; assay type: biochemical; details: at 3.1 mM ATP; F6P approximately twice the Km,F6P
T2 construct: made in house; host or cells: Sf9 insect cells (baculovirus)
T2 sequence (P17858 1-780 K315R/V545L/V582M): T1 sequence (P17858 1-780) with K315R, V545L, V582M
Source text: as §1, §2, §3

[3] = molecular target: T3, PFKM+pocket (R315 to lysine) (Homo sapiens, UniProt P08237, R315K); experiment: Recombinant PFKM+pocket activity assay; assay type: biochemical; details: at 4 mM ATP
T3 construct: made in house; host or cells: Sf9 insect cells (baculovirus)
T3 sequence (P08237 1-780 R315K): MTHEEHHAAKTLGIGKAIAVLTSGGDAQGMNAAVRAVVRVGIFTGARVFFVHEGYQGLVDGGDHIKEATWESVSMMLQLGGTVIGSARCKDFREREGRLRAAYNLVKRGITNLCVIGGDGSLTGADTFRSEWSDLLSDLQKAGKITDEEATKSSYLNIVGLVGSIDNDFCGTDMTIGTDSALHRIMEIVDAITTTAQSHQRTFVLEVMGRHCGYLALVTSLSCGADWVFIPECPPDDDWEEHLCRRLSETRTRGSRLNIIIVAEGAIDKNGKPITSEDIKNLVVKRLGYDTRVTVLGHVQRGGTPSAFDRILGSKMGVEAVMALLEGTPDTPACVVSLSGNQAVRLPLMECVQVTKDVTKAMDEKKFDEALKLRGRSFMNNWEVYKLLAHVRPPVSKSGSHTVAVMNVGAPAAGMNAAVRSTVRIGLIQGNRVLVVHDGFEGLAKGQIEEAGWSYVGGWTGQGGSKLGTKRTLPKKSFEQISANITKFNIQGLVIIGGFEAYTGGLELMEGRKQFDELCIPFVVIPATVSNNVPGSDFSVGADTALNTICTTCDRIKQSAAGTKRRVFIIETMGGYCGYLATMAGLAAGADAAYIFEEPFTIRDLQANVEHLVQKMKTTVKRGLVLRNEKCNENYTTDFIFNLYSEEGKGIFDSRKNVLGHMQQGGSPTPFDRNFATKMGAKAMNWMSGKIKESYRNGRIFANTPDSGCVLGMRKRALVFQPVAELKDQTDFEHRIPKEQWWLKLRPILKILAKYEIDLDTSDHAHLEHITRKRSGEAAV
Source text: as §1, §2
as §3, with “Assays for PFKM were performed at pH 7.0 due to the pH-dependence of ATP inhibition ([Trivedi and Danforth, 1966]).” left out

[4] = system: PMNs; experiment: NADPH/NADP+ detection assay in neutrophils; assay type: cell-based, human; details: PMA 30 min, then apocynin
Method: The ratio of NADPH/NADP^+ (or NADH/NAD^+) was calculated after measuring the individual concentrations of NADPH and NADP^+ (or NADH and NAD^+) with NADP/NADPH-Glo (or NAD/NADH-Glo) assays (Promega). […] Cells were lysed in plates by addition of 1% dodecyltrimethylammonium bromide (DTAB). To measure NADPH, half of the samples was heated at 60 °C for 30 min. The other half was treated with HCl before heating to 60°C, to measure NADP^+. All samples were neutralized before adding luciferase detection reagent, then incubated for 1 h with gentle shaking. Luminescence was recorded on a plate reader (Envision).

[5] = system: PFK1; experiment: PFK1 activity in PMN lysates; assay type: cell-based, human; details: neutrophils treated with PMA, LPS, or cholesterol crystals
Method: PFK1 activity assays from neutrophil lysates were modified from Abrantes et al., 2012. Briefly, neutrophils (10^7) were cultured with 0.5 μM NA-11 for 30 min, and then stimulated with 50 nM PMA, 5 μg/mL cholesterol crystals, 10 μg/mL LPS or 25 μM nigericin for 30 min. Cells were lysed in 10 mM PBS, 1% Triton X-100, and 1 x EDTA-free protease inhibitor cocktail on ice for 10 min. The soluble protein lysates were quantified by BCA assay (Pierce) and adjusted to 0.3125 mg/mL with lysis buffer. Lysate (80 μL) was mixed with 100 μL 2x enzyme cocktail solution (100 mM Tris-HCL pH7.4, 10 mM MgCl2, 0.5 mM ATP, 0.3 mM NADH, 1.35 units/mL Aldolase, 10 units/mL Triose phosphate isomerase, 4 units/mL glycerophosphate dehydrogenase, 20 mM ammonium sulfate) equilibrated to reach room temperature for 5 min. 20 μL of Fructose-6-phosphate (40 mM) was added and the reaction monitored for NADH decrease (absorbance at 340 nm) every 30 s for 30 min. Specific activity is in pmoles FBP per min per mg lysate.

[6] = system: human peripheral blood neutrophils; experiment: NETosis assay in human neutrophils (SYTOX Green, DNA area); assay type: cell-based; details: PMA; SAR analogs compared to LDC7559
Method: Freshly purified neutrophils were plated at 6 × 10^3 cells/well in glass bottom 96-well plates (SensoPlate, Greiner Bio-One 82050-792) in the RPMI medium described above. Cells were pretreated with DMSO vehicle, 0.5 μM NA-11, 100 μM apocynin, 0.5 μM and 5 μM PALP, or 0.5 μM and 5 μM LDC7559 for 30 min, and then stimulated with 50 nM PMA, 1 μM f-MLP, 5 μg/mL cholesterol crystals, 10 μg/mL LPS, 25 μM nigericin, or 25 μM calcymicin (A23187) for 3 h (except in Figures S1A, 6A and S7C, where cells were stimulated for 4 h). Cells were fixed and permeabilized in 2.5% paraformaldehyde (PFA) and 0.02% Triton X-100 in PBS for 30 min. For quantification of NETosis, cells were stained with 150 nM SYTOX Green and imaged in a KEYENCE Fluorescence Microscope (KEYENCE, ZB-X800E) at 10 x magnification. For immunolabeling, fixed cells were blocked with 2% BSA for 1 h, and then stained with anti-CitH3 and anti-MPO antibodies at a dilution of 1/200 in 1% BSA in PBS. Images were taken at 60 x magnification using an ImageXpress Micro Confocal high-content imaging system (Molecular Devices).
Semi-automated analysis of both phase and fluorescence images of SYTOX Green-stained neutrophils used a specialized MATLAB algorithm. Total cells were counted by scoring phase standard deviation and radial symmetry. NETosis was classified in cells by measuring the DNA area in the fluorescence image and comparing with a select internal training set for each experiment. Unstimulated cells and PMA-stimulated, […] cells served as negative controls. PMA-stimulated cells served as a positive control. NET-forming cells are presented as a percentage of total cells.

Nc1ncnc2c1ncn2[C@@H]1O[C@H](COP(=O)(O)OP(=O)(O)OP(=O)(O)O)[C@@H](O)[C@H]1O [ATP]
ATP inhibition of wild-type PFKL [1]: > 80% | inhibition of mutant PFKL (PFKL3Mut) [2]: > 80% | inhibition of PFKM+pocket [3]: > 90%

NC(=O)c1ccc(N)nc1 [6-aminonicotinamide, reference compound]
NADPH replenishment / turnover after apocynin [4]: effectively blocked NADPH turnover

bisindolylmaleimide [reference compound]
activation-induced reduction in PFK1 activity [5]: prevented the decrease in PFKL activity

CC#CCC(=O)Nc1ccc2c(c1)OCc1cc(-c3ccccc3OC)nn1C2 [NA-2]
inhibition of PMA-induced NETosis [6]: no inhibitor activity

CC#CCC(=O)Nc1cccc(-c2cc3n(n2)Cc2ccc(NC(C)=O)cc2OC3)c1 [NA-9]
inhibition of PMA-induced NETosis [6]: largely tolerated

CC(=O)Nc1ccc2c(c1)OCc1cc(Br)nn1C2 [NA-8]
inhibition of PMA-induced NETosis [6]: inactive

CC(=O)Nc1ccc2c(c1)OCc1cc(-c3cccc(C#CCCCO)c3)nn1C2 [NA-10]
inhibition of PMA-induced NETosis [6]: largely tolerated

COc1cccc(-c2cc3n(n2)Cc2ccc(NC(C)=O)cc2OC3)c1 [NA-6]
inhibition of PMA-induced NETosis [6]: slight increase in inhibitory activity

COc1ccc(-c2cc3n(n2)Cc2ccc(NC(C)=O)cc2OC3)cc1 [NA-7]
inhibition of PMA-induced NETosis [6]: slight increase in inhibitory activity
